Here are results for 1 substance from patent US11180762B2, “Methods and compositions for the treatment of cancer” (CHILDREN'S MEDICAL CENTER CORPORATION, priority 2014, dated 2021).

For one data set, the target named is human EpCAM (Homo sapiens, UniProt P16422). As to conditions: 19 nt aptamer; read-out: affinity for human EpCAM; cited from earlier work.
The subject of data set [1] is basal-A, luminal and basal-B breast cancer cell lines. Kind of data set: Cell proliferation/viability by CellTiter-Glo in 10 breast cancer cell lines. In kind it is cell-based, human. From the text:
To explore whether EpCAM-AsiCs could be used as anti-tumor agents in breast cancer, we examined by CellTiterGlo assay the effect of AsiCs directed against PLK1, a kinase required for mitosis, on survival of 10 breast cancer cell lines that included 5 basal-A TNBCs, 2 luminal cell lines, and 3 basal-B TNBCs. […] The anti-proliferative effect strongly correlated with EpCAM expression (FIG. 2B). The reduction in viable EpCAM+ cells after knockdown was due to induction of apoptosis, assessed by annexin V-propidium iodide staining and caspase activation (data not shown). To determine whether ligation of the EpCAM aptamer contributed to the anti-proliferative effect of the EpCAM-AsiC, we compared survival of cells that were treated with the PLK1 EpCAM-AsiC with cells treated with the aptamer on its own (FIG. 2C). […] Thus the PLK1 EpCAM-AsiC asserts its specific anti-tumor effect on EpCAM+ breast cancer cells by gene knockdown.
(§1) For uptake and silencing treatment, cells were plated at low density (10,000 cells/well in 96-well plates) and treated immediately. All AsiC and siRNA treatments were performed in either OptiMEM or WIT medium. Cell viability was assessed by CellTiter-Glo (Promega) or by Trypan-Blue staining in 96-well plates.
Background: In ATP-based viability assays light output follows the ATP content of the culture.

For another data set, the system named is 4T1 and 67NR cells. In words: EpCAM aptamer uptake by mouse cell lines. The format is cell-based.
In a further data set the target is T1, mouse EpCAM (Mus musculus, UniProt Q99JW5).
T1 construct: endogenous in cells; host or cells: 4T1 (EpCAM high) and 67NR (EpCAM minimal) mouse cancer cell lines
Kind of data set: EpCAM aptamer binding to mouse EpCAM.

Data set [2] deals with EpCAM+ MDA-MB-468 and BPLER cells vs BPE cells. In words: Uptake of fluorescently labeled aptamer/AsiC by breast cell lines (flow cytometry, microscopy). The following applies: Cy3 at 5'-end, 22 and 43 hr. In kind it is cell-based, human.
Source text: To verify selective uptake by EpCAM+ tumor cells, confocal fluorescence microscopy was used to compare internalization of the EpCAM aptamer, fluorescently labeled at the 5′-end with Cy3, in EpCAM+ MDA-MB-468 TNBC cells and BPE, EpCAM^dim immortalized breast epithelial cells (data not shown). […] As a consequence, cellular internalization is slow since it likely occurs via receptor recycling, rather than the more rapid process of activation-induced endocytosis.
as §1
For flow cytometry, cells were stained as previously described (Yu, F. et al (2007). let-7 Regulates Self Renewal and Tumorigenicity of Breast Cancer Cells. Cell 131, 1109-1123. ), briefly, direct immunostaining of EpCAM and AKT1 was performed using 1:50 dilutions of hAb for 30-60 minutes at 4° C. (BioLegend/BD). Cells were stained in PBS containing 0.5% FCS, 1 mM EDTA, and 25 mM HEPES. Samples were washed twice in the same buffer. Data was acquired using FACS-Canto II (BD Biosciences). Analyses were performed in triplicate and 10,000 gated events/sample were counted. All data analysis was performed using FlowJo (Treestar Inc.).

For a further data set, the system named is MB468-luc tumors. Kind of data set: Tumor inhibition, EpCAM+ MB468-luc xenograft. In kind it is in vivo, nude mice. As to conditions: 5 mg/kg sc every 3 d (72 h) for 2 wks. As to the method: For tumor inhibition studies, MB468-luc (5×10^6) and MB231-luc-mCherry (5×10^5) cells trypsinized with Tryple Express (Invitrogen), resuspended in a 1:1 WIT-Matrigel solution and injected subcutaneously in the flank of 8-week old female Nu/J mice (Stock #002019, Jackson Laboratories). Tumors size was analyzed daily using the IVIS Spectra, after 5 days tumors were clearly visible. […] Mice were treated every 72 h for 14 days.

pKd: −log10 of the molar value. “Also recorded” adds a separate entry of the source. Where two headings read alike, the source gives them in different places.

T1 sequence (Q99JW5 24-315): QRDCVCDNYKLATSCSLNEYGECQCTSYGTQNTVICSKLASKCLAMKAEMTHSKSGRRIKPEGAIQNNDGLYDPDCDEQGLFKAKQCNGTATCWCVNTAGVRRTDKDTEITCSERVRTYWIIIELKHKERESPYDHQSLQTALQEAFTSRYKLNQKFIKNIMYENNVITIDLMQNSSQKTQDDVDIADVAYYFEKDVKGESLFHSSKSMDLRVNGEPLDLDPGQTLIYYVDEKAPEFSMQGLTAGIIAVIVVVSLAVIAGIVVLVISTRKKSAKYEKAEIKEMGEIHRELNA
Chain of human EpCAM (P16422 24-314): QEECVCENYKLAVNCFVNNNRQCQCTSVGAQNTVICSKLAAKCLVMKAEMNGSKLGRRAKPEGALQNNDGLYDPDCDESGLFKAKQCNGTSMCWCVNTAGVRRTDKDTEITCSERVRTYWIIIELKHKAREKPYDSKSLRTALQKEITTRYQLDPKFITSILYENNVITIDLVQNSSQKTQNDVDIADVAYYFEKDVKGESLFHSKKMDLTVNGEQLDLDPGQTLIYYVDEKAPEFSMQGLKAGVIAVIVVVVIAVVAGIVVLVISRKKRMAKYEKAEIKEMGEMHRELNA

As to “EpCAM aptamer: 19 nt RNA aptamer to human EpCAM (Shigdar 2011); GCGACUGGUUACCCGGUCGUUU, SEQ ID NO: 33 (GCGACUGGUUACCCGGUCGUUU; listed as RNA, chemistry not given here) [reference compound]”, in the data set with human EpCAM, the pKd was 7.92. The “cell proliferation/viability, all cell lines tested” value in data set [1] is “did not have a reproducible effect on survival of any breast cancer cell lines; also recorded: had no effect on cell proliferation”; in data set [1] (listed as EpCAM-aptamer) it was “None of the cell lines treated with EpCAM-aptamer displayed decrease in cell viability; also recorded: didn't effect cell viability in any of the cell lines”. Moreover, in data set [1], the “cell proliferation/viability, basal-A and luminal (EpCAM+) lines” value was “does not affect cell growth or viability of EpCAM+ breast tumor cell lines”. Further, the “uptake by 4T1 and 67NR cells” value in the data set on 4T1 and 67NR cells was “not taken up by neither 4T1 nor 67NR cells”. Besides, the “binding to mouse EpCAM” value with mouse EpCAM is reported as “does not bind to mouse EpCAM; also recorded: does not recognize mouse EpCAM”; with mouse EpCAM (listed as EpCAM aptamers), “do not bind mouse EpCAM”. Also, the figures for the “uptake of Cy3-labeled aptamer, MDA-MB-468 vs BPE” value in data set [2] and in data set [2] (listed as EpCAM-Aptamer) were “Only MDA-MB-468 cells took up the aptamer” and “selective AsiC uptake in EpCAM+ cells”, respectively. The “growth of EpCAM+ MB468 tumors” value in the data set on MB468-luc tumors is “continued to grow without significant change; also recorded: neither of which had any anti-tumor activity”.
